Assay results published in patent publication US20070197512A1, “Carboxylic Acid Compounds and Use Thereof” (Japan Tobacco Inc., priority 2006, published 2007).
pIC50: −log10 of the molar value.

Tests used:
[1] = molecular target: T1, CYP2C9 (Homo sapiens, UniProt P11712); assay: CYP inhibitory test using human liver microsome; format: in vitro ADME; settings: model substrate diclofenac, 37° C., 10 min, read-out: CYP2C9 inhibition, IC50
T1 construct: Human liver microsome (20 mg protein/mL, 5 μL, Xenotech LLC, purchased from Lenexa Kans.); tissue Xenotech LLC; host or cells: human liver microsomes
Method: Experimental Example 2 CYP Inhibitory Test Using Human Liver Microsome
Human liver microsome (20 mg protein/mL, 5 μL, Xenotech LLC, purchased from Lenexa Kans.) was suspended in 100 mM potassium phosphate buffer (70 μL, pH 7.4), mixed with a solution (0.5 μL) of the Example compound dissolved in DMSO and preincubated at 37° C. for 5 min. NADPH producing system coenzyme solution (β-nicotinamide adenine dinucleotide phosphate: 5.2 mM, D-glucose-6-phosphate: 13.2 mM, magnesium chloride: 13.2 mM, glucose-6-phosphate dehydrogenase: 1.8 U/mL) 25 μL, and a model substrate (CYP3A4: midazolam 1 mM, CYP2D6: bufuralol 1 mM, CYP2C9: diclofenac 2 mM) 0.5 μL dissolved in DMSO were added to start the reaction. After incubation at 37° C. for 10 min., acetonitrile (200 μL) containing an internal standard substance (propranolol 1 μM) was added and the mixture was centrifuged (room temperature, 3000 rpm, 20 min). The amount of the metabolite produced from each model substrate in the supernatant was measured by high performance liquid chromatography/mass spectrometry (LC/MS/MS) and each CYP enzyme activity was determined. The concentration showing 50% inhibition (IC50) was calculated relative to the enzyme activity without addition of Example compound (DMSO 0.5 μL added) as 100%.
As a comparative example, the CYP enzyme activity of the compound described in JP-A-3-135917 was examined by determining the IC50 value in the same manner as above.

[2] = molecular target: T2, human URAT1 (Homo sapiens, UniProt Q96S37); assay: Uric acid transport inhibitory test using human URAT1-expressing cells; format: cell-based; settings: human URAT1-expressing HEK293 cells, 14C-uric acid 50 μM, uptake 5 min, room temperature; read-out: hURAT1 IC50
T2 construct: Human URAT1 full length cDNA was subcloned to expression vector pcDNA3.1; expressed in transfected cells; host or cells: HEK293 cells (pcDNA3.1, geneticin-selected)
T2 sequence (Q96S37 1-553): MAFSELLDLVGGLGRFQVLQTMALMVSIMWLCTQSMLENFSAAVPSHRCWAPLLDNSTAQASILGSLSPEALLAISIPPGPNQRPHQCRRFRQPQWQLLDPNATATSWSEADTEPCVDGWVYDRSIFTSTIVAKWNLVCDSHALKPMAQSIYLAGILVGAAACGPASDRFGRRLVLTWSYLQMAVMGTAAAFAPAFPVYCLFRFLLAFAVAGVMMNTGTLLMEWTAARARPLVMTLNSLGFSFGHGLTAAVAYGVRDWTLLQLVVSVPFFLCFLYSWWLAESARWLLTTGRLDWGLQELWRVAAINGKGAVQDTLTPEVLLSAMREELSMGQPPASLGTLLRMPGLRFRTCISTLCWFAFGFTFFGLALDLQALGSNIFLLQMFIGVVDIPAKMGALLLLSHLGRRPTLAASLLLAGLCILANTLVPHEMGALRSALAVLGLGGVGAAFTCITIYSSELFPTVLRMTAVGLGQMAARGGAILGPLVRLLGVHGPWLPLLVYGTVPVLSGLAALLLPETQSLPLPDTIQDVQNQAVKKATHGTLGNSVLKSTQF
Description: Experimental Example 1 Uric Acid Transport Inhibitory Test Using Human URAT1-Expressing Cells
Human URAT1 full length cDNA was subcloned to expression vector pcDNA3.1 and human URAT1 gene was transfected into human embryonic kidney derived cell line (HEK293 cells) by liposome method using Lipofectamine2000. Simultaneously, HEK293 cells transfected with expression vector pcDNA3.1 alone (hereinafter mock cells) were also produced. HEK293 cells expressing human URAT1 gene or mock cells were selected with geneticin resistance as an index. The functional expression of human URAT1 gene was confirmed by a method similar to the following method, using ^14C-uric acid transport into the cells as an index.
Human URAT1-expressing HEK293 cells or mock cells were cultured in Dulbecco's modified Eagle's MEM medium (high glucose) containing 10% fetal bovine serum, 0.5 mg/mL geneticin sulfate, 100 units/mL penicillin and 100 μg/mL streptomycin under the conditions of 37° C. and 5% CO2 in an incubator. The cells were plated in a 96 well plate (poly-D-Lysine coated) at 1×10^5 cells/well and the following uric acid transport inhibitory test was performed 24 hr later. This test was performed at room temperature.
After the medium was removed by aspiration from each well, the cells were washed once with Hank's Balanced Salt Solution (HBSS) and preincubated with HBSS (100 μL/well) for 5 min. HBSS was aspirated and an assay buffer (wherein NaCl in the above-mentioned HBSS had been substituted with Na-gluconate) containing various concentrations of the Example compound and a radioactive ligand (14C-uric acid; final concentration 50 μM) was added to each well at 50 μL/well and an uptake reaction was carried out for 5 min. After the reaction, the cells were washed twice with ice-cold HBSS (150 μL/well), and Microscinti™ 20 (PerkinElmer) was added at 50 μL/well. The cells were lysed by stirring and the radioactivity of each well was measured by a liquid scintillation counter (TOP COUNT, Packard).
The uric acid transport rate (%) of the Example compound at each concentration was calculated relative to the radioactivity (difference in radioactivity between human URAT1-expressing HEK293 cells and mock cells without addition of Example compound (DMSO addition)) showing URAT1 specific uric acid transport as 100%, and the concentration (IC50) of the Example compound necessary for inhibiting the uric acid transport rate by 50% was determined. In Table 24-Table 27, “+++” means IC50 value of less than 300 nM, “++” means IC50 value of 300 nM to less than 3000 nM, and “+” means IC50 value of not less than 3000 nM.

T1 sequence (P11712 whole entry): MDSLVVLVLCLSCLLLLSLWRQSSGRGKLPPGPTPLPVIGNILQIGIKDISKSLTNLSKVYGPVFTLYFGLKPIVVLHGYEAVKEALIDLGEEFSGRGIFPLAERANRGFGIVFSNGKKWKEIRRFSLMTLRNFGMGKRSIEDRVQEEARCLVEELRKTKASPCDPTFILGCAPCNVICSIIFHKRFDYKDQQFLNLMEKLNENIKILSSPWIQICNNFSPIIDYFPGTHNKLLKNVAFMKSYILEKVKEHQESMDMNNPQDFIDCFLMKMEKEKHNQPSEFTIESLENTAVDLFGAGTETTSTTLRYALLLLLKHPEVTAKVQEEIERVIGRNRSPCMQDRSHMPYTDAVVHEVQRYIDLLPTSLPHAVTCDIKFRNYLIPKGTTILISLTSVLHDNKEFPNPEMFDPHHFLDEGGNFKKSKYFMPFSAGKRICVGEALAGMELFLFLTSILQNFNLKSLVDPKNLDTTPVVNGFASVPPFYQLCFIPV

SMILES	pIC50 [1]	pIC50 [2]
CC(C)c1cccc2c1OC(c1ccccc1)C(=O)N2CCC(=O)O (stereo not drawn) [Example 38, 3-(8-isopropyl-3-oxo-2-phenyl-2,3-dihydrobenzo[1,4]oxazin-4-yl)propionic acid]	< 4.30	> 6.52
Cc1cc(C)c2c(c1)N(CCC(=O)O)C(=O)[C@H](C(C)C)O2 [Example 73, 3-((S)-2-isopropyl-6,8-dimethyl-3-oxo-2,3-dihydrobenzo[1,4]oxazin-4-yl)propionic acid]	< 4.30	> 6.52
Cc1cc(Cl)c2c(c1)N(CCC(=O)O)C(=O)[C@H](C(C)C)O2 [Example 109, 3-((S)-8-chloro-2-isopropyl-6-methyl-3-oxo-2,3-dihydrobenzo[1,4]oxazin-4-yl)propionic acid]	< 4.30	5.52 to 6.52
CC[C@H](C)[C@H]1Oc2c(C)cc(C)cc2N(CCC(=O)O)C1=O [Example 105, 3-[(R)-2-((S)-sec-butyl)-6,8-dimethyl-3-oxo-2,3-dihydrobenzo[1,4]oxazin-4-yl]propionic acid]	< 4.30	> 6.52
Cc1cc(C)c2c(c1)N(CCC(=O)O)C(=O)[C@@H](CC(C)C)O2 [Example 91, 3-((R)-2-isobutyl-6,8-dimethyl-3-oxo-2,3-dihydrobenzo[1,4]oxazin-4-yl)propionic acid]	< 4.30	> 6.52
Cc1cc(Cl)cc2c1O[C@@H](C(C)C)C(=O)N2CCC(=O)O [Example 110, 3-((S)-6-chloro-2-isopropyl-8-methyl-3-oxo-2,3-dihydrobenzo[1,4]oxazin-4-yl)propionic acid]	< 4.30	5.52 to 6.52
O=C(O)CN1C(=S)COc2ccccc21 [Example 17, (3-thioxo-2,3-dihydrobenzo[1,4]oxazin-4-yl)acetic acid]	–	≤ 5.52
Cc1cc(C)c2c(c1)N(CCC(=O)O)C(=O)C(CC(C)C)O2 (stereo not drawn) [Example 90, 3-(2-isobutyl-6,8-dimethyl-3-oxo-2,3-dihydrobenzo[1,4]oxazin-4-yl)propionic acid]	–	> 6.52
O=C(O)CN1C(=O)COc2ccccc21 [Example 3, (3-oxo-2,3-dihydrobenzo[1,4]oxazin-4-yl)acetic acid]	–	≤ 5.52
CC(C)C1Sc2ccccc2N(CC(=O)O)C1=O (stereo not drawn) [Example 30, (2-isopropyl-3-oxo-2,3-dihydrobenzo[1,4]thiazin-4-yl)acetic acid]	–	≤ 5.52
CC(C)C1Oc2c(ccc3ccccc23)N(CCC(=O)O)C1=O (stereo not drawn) [Example 99, 3-(2-isopropyl-3-oxo-2,3-dihydronaphtho[1,2-b][1,4]oxazin-4-yl)propionic acid]	–	≤ 5.52
CC(C)c1cccc2c1OC(c1ccccc1)C(=O)N2CC(=O)O (stereo not drawn) [Example 26, (8-isopropyl-3-oxo-2-phenyl-2,3-dihydrobenzo[1,4]oxazin-4-yl)acetic acid]	–	≤ 5.52
CC(C)C1Oc2ccc(Cl)cc2N(CCC(=O)O)C1=O (stereo not drawn) [Example 63, 3-(6-chloro-2-isopropyl-3-oxo-2,3-dihydrobenzo[1,4]oxazin-4-yl)propionic acid]	–	> 6.52
CC(C)c1cccc2c1OC(C)(C)C(=O)N2CC(=O)O [Example 34, (8-isopropyl-2,2-dimethyl-3-oxo-2,3-dihydrobenzo[1,4]oxazin-4-yl)acetic acid]	–	≤ 5.52
Cc1ccc2c(c1)N(CCC(=O)O)C(=O)C(c1ccccc1)O2 (stereo not drawn) [Example 75, 3-(6-methyl-3-oxo-2-phenyl-2,3-dihydrobenzo[1,4]oxazin-4-yl)propionic acid]	–	5.52 to 6.52

The next lines start with the values.

pIC50 [1]	pIC50 [2]	SMILES
< 4.30	≤ 5.52	Cc1ccc2c(c1)N(C(=O)/C=C/C(=O)O)CC(c1ccccc1)O2 (stereo not drawn) [Example 65, (E)-4-(6-methyl-2-phenyl-2,3-dihydrobenzo[1,4]oxazin-4-yl)-4-oxo-2-butenoic acid]
< 4.30	5.52 to 6.52	Cc1ccc2c(c1)N(C(=O)/C=C/C(=O)O)CC(C(C)C)O2 (stereo not drawn) [Example 64, (E)-4-(2-isopropyl-6-methyl-2,3-dihydrobenzo[1,4]oxazin-4-yl)-4-oxo-2-butenoic acid]
< 4.30	≤ 5.52	Cc1ccc2c(c1)OC(C(C)C)CN2C(=O)/C=C/C(=O)O (stereo not drawn) [Example 56, (E)-4-(2-isopropyl-7-methyl-2,3-dihydrobenzo[1,4]oxazin-4-yl)-4-oxo-2-butenoic acid]
< 4.30	5.52 to 6.52	Cc1cc(Cl)cc2c1OC(C(C)C)CN2C(=O)/C=C/C(=O)O (stereo not drawn) [Example 83, (E)-4-(6-chloro-2-isopropyl-8-methyl-2,3-dihydrobenzo[1,4]oxazin-4-yl)-4-oxo-2-butenoic acid]
< 4.30	5.52 to 6.52	CC(C)c1cccc2c1OC(C(C)C)CN2C(=O)/C=C\C(=O)O (stereo not drawn) [Example 37, (Z)-4-(2,8-diisopropyl-2,3-dihydrobenzo[1,4]oxazin-4-yl)-4-oxo-2-butenoic acid]
< 4.30	≤ 5.52	Cc1cccc2c1OC(C(C)C)CN2C(=O)/C=C/C(=O)O (stereo not drawn) [Example 54, (E)-4-(2-isopropyl-8-methyl-2,3-dihydrobenzo[1,4]oxazin-4-yl)-4-oxo-2-butenoic acid]
4.80	–	CC(C)c1cccc2c1OC(C(C)C)C(=S)N2CC(=O)O (stereo not drawn) [Comparative Example, reference compound]
–	5.52 to 6.52	CCC1CN(C(=O)/C=C/C(=O)O)c2cccc(C(C)C)c2O1 (stereo not drawn) [Example 67, (E)-4-(2-ethyl-8-isopropyl-2,3-dihydrobenzo[1,4]oxazin-4-yl)-4-oxo-2-butenoic acid]
–	5.52 to 6.52	CC(C)c1cccc2c1O[C@H](C(C)C)C(=S)N2CC(=O)O [Example 8, ((R)-2,8-diisopropyl-3-thioxo-2,3-dihydrobenzo[1,4]oxazin-4-yl)acetic acid]
–	≤ 5.52	CC(C)C1Oc2ccccc2N(CC(=O)O)C1=O (stereo not drawn) [Example 6, (2-isopropyl-3-oxo-2,3-dihydrobenzo[1,4]oxazin-4-yl)acetic acid]
–	> 6.52	Cc1cccc2c1OC(C(C)C)C(=O)N2CCC(=O)O (stereo not drawn) [Example 44, 3-(2-isopropyl-8-methyl-3-oxo-2,3-dihydrobenzo[1,4]oxazin-4-yl)propionic acid]
–	≤ 5.52	CC(C)c1cccc2c1OC(C(C)C)C(=O)N2CCCC(=O)O (stereo not drawn) [Example 18, 4-(2,8-diisopropyl-3-oxo-2,3-dihydrobenzo[1,4]oxazin-4-yl)butyric acid]
